Data as given in PMC4522690 (Journal of medicinal chemistry, 2015).

What was measured:
TFR-PR20 [1] = settings: cited from earlier work
PR20 [2] = settings: compared with darunavir or wild-type PR; cited from earlier work
TFR-PR [3] = biological target: T1, TFR-PR (Human immunodeficiency virus type 1, UniProt P03366); assay: Inhibition of N-terminal autoprocessing of wild-type precursor in E. coli; type: cell-based, HIV-1
TFR-PR20 [4] = assay: Inhibition of N-terminal autoprocessing of mutant precursor in E. coli; type: cell-based, HIV-1; settings: tests up to 100 μM concentration
PR20 [5] = assay: Kinetic assay of PR20 proteolytic activity with fluorogenic substrate; type: biochemical, HIV-1; settings: Ki PR20 / Ki wild-type PR
[6] = blood–brain barrier penetration; cited from earlier work
PR20 [7] = biological target: PR20 (Human immunodeficiency virus type 1, UniProt P03366, D530N/I547V/I584V, form not given); assay: Kinetic assay of PR20 proteolytic activity with fluorogenic substrate; type: biochemical, HIV-1; settings: versus darunavir KL 41 nM
[8] = tested on: highly darunavir resistant strain of HIV-1; settings: strain selected in the laboratory; cited from earlier work
TFR-PR [9] = biological target: T1, TFR-PR; settings: cited from earlier work

| Structure (SMILES) | inhibition of autoprocessing of PR20-containing precursors (in words) (TFR-PR20 [1]) | IC50 (TFR-PR [3]) | inhibition of autoprocessing of TFR-PR20 precursor (TFR-PR20 [4]) | inhibition of autoprocessing of TFR-PR relative to other clinical protease inhibitors (in words) (TFR-PR [9]) | other results |
| --- | --- | --- | --- | --- | --- |
| COc1ccc(S(=O)(=O)N(C[C@H]2CCC(=O)N2)C[C@@H](O)[C@H](Cc2ccccc2)NC(=O)O[C@@H]2C[C@@H]3CCO[C@@H]3C2)cc1 [GRL-02031A] | neither GRL-02031A nor GRL-0519A inhibits the autoprocessing |  |  |  | binding affinity for PR20 (in words) (PR20 [2]): weaker affinity for PR20 |
| COc1ccc(S(=O)(=O)N(CC(C)C)C[C@@H](O)[C@H](Cc2ccccc2)NC(=O)O[C@H]2CO[C@H]3OC[C@H](OC)[C@H]32)cc1 [GRL-4410A] |  | 1000 to 2000 nM | no significant improvement was observed in the inhibition |  | fold weaker inhibition (Ki) of PR20 than wild-type PR (PR20 [5]): 1000 fold |
| CC(C)CN(C[C@@H](O)[C@H](Cc1ccccc1)NC(=O)O[C@H]1CO[C@H]2OCC(F)(F)[C@H]21)S(=O)(=O)c1ccc(N)cc1 [GRL-5010A] |  | 1000 to 2000 nM | no significant improvement was observed in the inhibition |  | fold higher apparent permeability coefficient (Papp) than darunavir [6]: 6.5 fold; fold lower Ki for PR20 relative to darunavir binding affinity (KL) (PR20 [7]): about 2 fold; antiviral activity against highly darunavir resistant HIV-1 (in words) [8]: moderate antiviral activity |
| COC(=O)N[C@H](C(=O)N[C@@H](Cc1ccccc1)[C@@H](O)CN(Cc1ccc(-c2ccccn2)cc1)NC(=O)[C@@H](NC(=O)OC)C(C)(C)C)C(C)(C)C [atazanavir] |  |  |  | inhibited most effectively |  |
| CC(C)CN(C[C@@H](O)[C@H](Cc1ccccc1)NC(=O)O[C@H]1CO[C@H]2OCC[C@H]21)S(=O)(=O)c1ccc(N)cc1 [darunavir] | like darunavir, neither GRL-02031A nor GRL-0519A inhibits the autoprocessing |  |  | inhibited most effectively |  |
| CC(C)(C)NC(=O)[C@@H]1C[C@@H]2CCCC[C@@H]2CN1C[C@@H](O)[C@H](Cc1ccccc1)NC(=O)[C@H](CC(N)=O)NC(=O)c1ccc2ccccc2n1 [saquinavir] |  |  |  | inhibited most effectively |  |
